From article PMC9323797, “4-Substituted Thieno[3,2-d]pyrimidines as Dual-Stage Antiplasmodial Derivatives” (Pharmaceuticals, 2022)
Like-named read-outs stand apart in the source and are kept apart here.

Assays:
[1] = Cytotoxic evaluation on HepG2 cell line (MTT, 72 h); type: cell-based, human; details: HepG2 cells (hepatocarcinoma cell line, ATCC HB-8065); human hepatoma cell line HepG2, MTT, 72 h, mean ± SD of three independent experiments
Description: (§1) The HepG2 cell line (hepatocarcinoma cell line purchased from ATCC, ref HB-8065) was maintained at 37 °C, 5% CO2, with 90% humidity in MEM supplemented with 10% fetal bovine serum, 1% L-glutamine (200 mM), penicillin (100 U/mL), and streptomycin (100 μg/mL) (complete MEM medium). The evaluation of the cytotoxicity of the tested molecules was performed according to the method of Mosmann, with slight modifications. Briefly, 5.103 cells in 100 μL of the complete medium were inoculated into each well of a 96-well plate and incubated at 37 °C in a humidified 5% CO2. After 24 h incubation, 100 μL of medium with various product concentrations dissolved in DMSO (final concentration less than 0.5% v/v) was added and the plates were incubated for 72 h at 37 °C. Triplicate assays were performed for each sample. Each plate well was then microscope-examined for detecting possible precipitate formation before the medium was aspirated from the wells. A total of 100 μL of MTT (3-(4,5-dimethyl-2-thiazolyl)-2,5-diphenyl-2H-tetrazolium bromide) solution (0.5 mg/mL in medium without FCS) was then added to each well. Cells were incubated for 2 h at 37 °C. After this time, the MTT solution was removed and DMSO (100 μL) was added to dissolve the resulting blue formazan crystals. Plates were shaken vigorously (700 rpm) for 10 min. The absorbance was measured at 570 nm, with 630 nm as a reference wavelength using a TECAN Infinite F-200 Microplate Reader. DMSO was used as a blank and doxorubicin (purchased from Sigma Aldrich, St. Louis, MO, USA) was used as a positive control. Cell viability was calculated as a percentage of control (cells incubated without compound). The 50% cytotoxic concentration (CC50) was determined from the dose–response curve by using the TableCurve software 2D v.5.0. CC50 values represent the mean value calculated from three independent experiments.

[2] = Cytotoxicity on primary simian hepatocytes (DAPI count of host cell nuclei); type: cell-based, Macaca fascicularis; details: Macaca fascicularis, count of total cell nuclei, mean ± SD of three independent experiments
Description: (§2) Primary simian hepatocytes were isolated from liver segments collected from healthy Macaca fascicularis from CEA, Fontenay aux Roses, France. All hepatocytes were obtained using collagenase perfusion, as previously described, and were immediately cryopreserved. One day before infection, the cryopreserved hepatocytes were thawed at 37 °C and were seeded into collagen-coated (5 µg/cm^2 rat tail collagen I, Invitrogen, Carlsbad, CA, USA) 96-well plate, at a density of 80,000 cells per well. They were cultured at 37 °C in 5% CO2 in William’s E medium (Gibco, Life Technologies, Saint Aubin, France) supplemented with 10% of Fetal Bovine Serum FCIII, 5 × 10^–5 M hydrocortisone hemisuccinate (Serb Laboratories, Paris, France), 5 μg per ml bovine insulin (Sigma Aldrich, St. Louis, MO, USA), 2 mM L-glutamine, and 0.02 U per ml-0.02 μg per ml penicillin-streptomycin (Life Technologies) until infection with sporozoites.
(§3) Sporozoites of P. berghei were re-suspended in the above complete medium used for the hepatocytes culture. Simian hepatocytes were inoculated in 50 μL of complete media with 20,000 P. berghei-sporozoites/well in 96-well plates. The infected culture plates were centrifuged for 10 min at 900× g to allow fast parasite sedimentation onto the target cells and were further incubated with the serial dilution of drugs that were prepared in advance. After 3 h of incubation, cultures were washed and further incubated in a fresh medium containing the appropriate drug concentration, which were changed every 24 h during the study period. Cultured hepatocytes were fixed using 4% paraformaldehyde (PFA) for 15 min at room temperature. Host cell and parasite nuclei were labelled with 4′,6-diamidino-2-phenylindole (DAPI). Upon fixation and immunostaining, cell culture plates were analyzed in order to determine the number and size of the parasites using a Cell Insight High Content Screening platform equipped with the Studio HCS software (Thermo Fisher Scientific, Waltham, MA, USA). The parasite size reduction was calculated on the average object area using the total surface area of each selected object (μm^2). To assess the cell toxicity of drugs for hepatic cultures, fixed plates were further scanned for the DAPI signal representing host nuclei. The analysis was based on counting of total cell nuclei. GraphPad Prism 7 statistical software (GraphPad. Software, San Diego, CA, USA) was used for data analysis and graphing. All values were expressed as means and standard deviations (SD).

P. falciparum K1 [3] = experiment: Blood-stage antiplasmodial evaluation (SYBR Green I fluorescence, 72 h); type: cell-based, Plasmodium falciparum; details: asexual blood stages, drug-resistant K1 strain, 72 h incubation, mean ± SD of three independent experiments; for EC50: read-out: P. falciparum K1 EC50
Description: A K1 culture-adapted P. falciparum strain resistant to chloroquine, pyrimethamine, and proguanil was used in an in vitro culture. It was maintained in a continuous culture, as described previously by Trager and Jensen. Cultures were maintained in fresh A+ human erythrocytes at 2.5% hematocrit in a complete medium (RPMI 1640 with 25 mM HEPES, 25 mM NaHCO3, and 10% of A+ human serum) at 37 °C under a reduced O2 atmosphere (gas mixture: 10% O2, 5% CO2, and 85% N2). Parasitemia was maintained daily between 1 and 3%. The P. falciparum drug susceptibility test was carried out by comparing quantities of DNA in treated and control cultures of parasite in human erythrocytes, according to a SYBR Green I fluorescence-based method using a 96-well fluorescence plate reader. Compounds, previously dissolved in DMSO (final concentration less than 0.5% v/v), were incubated in a total assay volume of 200 μL (RPMI, 2% hematocrit and 0.4% parasitemia) for 72 h in a humidified atmosphere (10% O2 and 5% CO2) at 37 °C, in 96-well flat bottom plates. Duplicate assays were performed for each sample. After incubation, plates were frozen at […] for 24 h. Then, the frozen plates were thawed for 1 h at 37 °C. A total of 15 μL of each sample was transferred to 96-well flat-bottom non-sterile black plates (Greiner Bio-One, Kremsmünster, Austria) already containing 15 μL of the SYBR Green I lysis buffer (2X SYBR Green I, 20 mM Tris base pH 7.5, 20 mM EDTA, 0.008% w/v saponin, 0.08% w/v Triton X-100). Negative control treated by solvents (DMSO or H2O) and positive controls (chloroquine) were added to each set of experiments. Plates were incubated for 15 min at 37 °C and then read on a TECAN Infinite F-200 spectrophotometer with excitation and emission wavelengths at 485 and 535 nm, respectively. The concentrations of compounds required to induce a 50% decrease in parasite growth (EC50 K1) were calculated from three independent experiments.

P. berghei = experiment: Hepatic-stage antiplasmodial evaluation (PbGFP sporozoites in primary simian hepatocytes, high content imaging); type: cell-based; details: mean ± SD of three independent experiments
Excerpt: P. berghei sporozoites constitutively expressing green fluorescent protein (PbGFP, ANKA strain) were obtained by the dissection of salivary glands from infected Anopheles stephensi mosquitoes bred and infected in the insectary facilities of UMR-S 1135 (CIMI, Paris, France). Infected salivary glands were removed by hand dissection, crushed in a potter, and filtered through a 40 μm filter for sporozoite isolation (Cell Strainer, BD BioSciences, San Jose, CA, USA). The sporozoites were counted using a disposable plastic microscope slide (KOVA).
as §2, §3

P. falciparum K1 [4] = test system: P. falciparum K1; set-up: method as in PMID 25791675; details: asexual blood stages, K1 strain; cited from earlier work
HepG2 [5] = test system: HepG2; set-up: method as in PMID 25791675; details: cited from earlier work
HepG2 [6] = experiment: Cytotoxic evaluation on HepG2 cell line (MTT, 72 h); type: cell-based, human; details: toxicity on HepG2 versus EC50 against the erythrocytic stage of P. falciparum
Description: as §1

[7] = test system: Primary Simian Hepatocytes; experiment: Cytotoxicity on primary simian hepatocytes (DAPI count of host cell nuclei); type: cell-based, Macaca fascicularis; details: count of total cell nuclei, mean ± SD of three independent experiments
Description: as §2, §3

[8] = Plasmodium falciparum, K1, 72 h

Row | SMILES | CC50 at 72 h [1] [µM] | CC50 [2] [µM] | EC50 (P. falciparum K1 [3]; [8]) [nM] | P. falciparum K1 EC50 (P. falciparum K1 [3]) | EC50 (P. berghei; Plasmodium berghei, Hepatocyte) [µM] | EC50 (P. berghei) [µM] | EC50 (P. falciparum K1 [4]) [nM] | CC50 (HepG2 [5]) [µM] | selective index (HepG2 [6]) | EC50 (P. falciparum K1 [3]) [nM] | P. berghei EC50 (P. berghei) | Primary Simian Hepatocytes CC50 [7]
1 | CCCNc1nc(NC(C)(C)C)nc2cc(-c3ccc(C)cc3)sc12 [Compound 10d, N^2-(tert-butyl)-N^4-propyl-6-(p-tolyl)thieno[3,2-d]pyrimidine-2,4-diamine] | 3.7 ± 0.3 | 22 ± 2.8 | 1100 ± 200 | micromolar range | ~5 | 7.1 ± 1.4 |  |  |  |  |  | 
2 | Cc1ccc(-c2cc3nc(NC(C)(C)C)[nH]c(=O)c3s2)cc1 [Compound 1, Gamhepathiopine, reference compound] |  | > 200 |  |  | 24.3 ± 1.6 |  | 200 ± 20 | 25.6 ± 3.1 |  |  |  | 
3 | Cc1ccc(-c2cc3nc(NC(C)(C)C)nc(I)c3s2)cc1 [Compound 6, N-(Tert-butyl)-4-iodo-6-(p-tolyl)thieno[3,2-d]pyrimidin-2-amine] | 29 ± 5.5 | > 100 |  | submicromolar range | 26.7 ± 5.6 |  |  |  |  |  |  | 
4 | Cc1ccc(-c2cc3nc(NC(C)(C)C)nc(Cl)c3s2)cc1 [Compound 5, N-(Tert-butyl)-4-chloro-6-(p-tolyl)thieno[3,2-d]pyrimidin-2-amine] | 16.4 ± 5.4 | > 100 |  | submicromolar range | ~15 | 16.5 ± 8 |  |  | 54.7 |  |  | 
5 | Cc1ccc(-c2cc3nc(NC(C)(C)C)nc(N)c3s2)cc1 [Compound 10a, N^2-(Tert-butyl)-6-(p-tolyl)thieno[3,2-d]pyrimidine-2,4-diamine] | 12.1 ± 4.1 | > 50 | < 2000 | micromolar range | 70.7 ± 9.7 |  |  |  |  | 1400 ± 600 | not active | 
6 | Cc1ccc(-c2cc3nc(NC(C)(C)C)nc(NCCCCO)c3s2)cc1 [Compound 10f, 4-((2-(tert-butylamino)-6-(p-tolyl)thieno[3,2-d]pyrimidin-4-yl)amino)butan-1-ol] | 2.9 ± 1.1 | 17.7 ± 1.9 | 700 ± 100 | micromolar range | ~15 | 14.1 ± 1.9 |  |  |  |  |  | 
7 | COCCNc1nc(NC(C)(C)C)nc2cc(-c3ccc(C)cc3)sc12 [Compound 10g, N^2-(tert-butyl)-N^4-(2-methoxyethyl)-6-(p-tolyl)thieno[3,2-d]pyrimidine-2,4-diamine] | 3.7 ± 0.9 | 7.8 ± 2.3 | 800 ± 200 | micromolar range | ~5 | 6.3 ± 0.2 |  |  |  |  |  | cytotoxic
8 | C[C@H]1c2cccc(O)c2C(=O)C2=C(O)[C@]3(O)C(=O)C(C(N)=O)=C(O)[C@@H](N(C)C)[C@@H]3[C@@H](O)[C@@H]21 [Doxycycline] |  |  |  |  |  |  | 5000 |  |  |  |  | 
9 | CNc1nc(NC(C)(C)C)nc2cc(-c3ccc(C)cc3)sc12 [Compound 10c, N^2-(tert-butyl)-N^4-methyl-6-(p-tolyl)thieno[3,2-d]pyrimidine-2,4-diamine] | 3.7 ± 0.6 | 31.5 ± 6.8 | 1000 ± 400 | micromolar range | ~5 | 4.6 ± 5.7 |  |  |  |  | most active | 
